Results on three compounds are retold here after patent US20240270760A1, “GLYCERIC ACID, GLYCERATE, AND COMPOSITION THEREOF” (INNER MONGOLIA KINGDOMWAY PHARMACEUTICAL CO., LTD., priority 2023, published 2024).

Data set [1] relates to Alcohol metabolism. Kind of data set: Alcohol metabolism test: ethanol content in venous blood after composition and ethanol feeding. The data set is classed as in vivo, mice. Conditions: for Percentage decrease compared to comparative group: decrease of venous blood ethanol content versus physiological saline group (75.0 mg/100 mL); for Ethanol content: venous blood 1 hour after 2 mL of 5% edible ethanol, 2 mL composition solution (4.5 g in 15 mL physiological saline) fed 1 hour before ethanol, 7 animals per group, GC-FID. The procedure:
The test was divided into test groups and comparative groups. Each group included 7 healthy animals (e.g., mice). The healthy animals were fed in the laboratory for 10 days to adapt to the test environment, and then fasting was maintained 12 hours before the start of the test.
4.5 g of the compositions obtained in preparation examples 10-31 and comparative examples 1-8 were respectively dissolved in 15 mL of physiological saline to prepare composition solutions. The animals in the test groups were fed with 2 mL of the composition solution respectively, and the animals in the comparative group were fed with the same dose of normal saline. 1 hour later, the animals in the test groups and the comparative groups were fed with 2 mL of 5% edible ethanol, respectively. 1 hour later, the venous blood of the animals was collected. The ethanol content in the venous blood was detected by a gas chromatography-hydrogen flame ionization detector.

The nature of data set [2]: Dissolution of calcium glycerate forms in water at 37±0.2° C. (FIG. 9). In kind it is physicochemical. To be noted: comparison between forms.

On to `O=C(O)[C@H](O)CO` [compound 1, D-glyceric acid], for which, in data set [1], the “Percentage decrease compared to comparative group” value is recorded as 14.8% and the Ethanol content stood at 63.9 mg/100 mL. Taken in the same sequence, the figures for `O=C(O)[C@H](O)CO` [compound 5, D-glyceric acid] were 15.2% and 63.6 mg/100 mL. As to `O=C([O][Ca][O]C(=O)[C@H](O)CO)[C@H](O)CO` [crystalline Form II, calcium D-glycerate], in data set [2], the dissolution rate entry is reported as “faster than that of crystalline Form I”.
